Laboratory results published in patent US20200317639A1, “POLYMORPHS OF N-[(2,6-DIFLUORO-3-METHOXYPHENYL)METHYL]-3-(METHOXYMETHYL)-1-({4-[(2-OXOPYRIDIN-1YL)METHYL]PHENYL}METHYL)PYRAZOLE-4-CARBOXAMIDE” (KALVISTA PHARMACEUTICALS LIMITED, priority 2016, published 2020).
“Also recorded” adds a separate entry of the source.

Key:
[1] = in vivo; cited from earlier work
rats = details: systemic administration; cited from earlier work
[2] = Gravimetric Vapour Sorption (GVS); format: physicochemical
Procedure: Gravimetric Vapour Sorption (GVS) data were collected using the following method: Approximately 10 mg of sample was placed into a wire-mesh vapour sorption balance pan and loaded into an ‘IgaSorp’ vapour sorption balance (Hiden Analytical Instruments). The sample was then dried by maintaining a 0% humidity environment until no further weight change was recorded. Subsequently, the sample was then subjected to a ramping profile from 0-90% RH at 10% RH increments, maintaining the sample at each step until equilibration had been attained (99% step completion). Upon reaching equilibration, the % RH within the apparatus was ramped to the next step and the equilibration procedure repeated. After completion of the sorption cycle, the sample was then dried using the same procedure. The weight change during the sorption/desorption cycles were then monitored, allowing for the hygroscopic nature of the sample to be determined.

[3] = Stability study, 40° C./75% RH 6 months and 25° C./60% RH 12 months, packed; format: physicochemical
Procedure: Yet further evidence of the suitability of the crystalline forms for pharmaceutical development is provided by additional stability data disclosed herein. Form 1 of N-[(2,6-difluoro-3-methoxyphenyl)methyl]-3-(methoxymethyl)-1-({4-[(2-oxopyridin-1-yl)methyl]phenyl}methyl)pyrazole-4-carboxamide was stored separately at two conditions of 40° C./75% RH for 6 months and 25° C./60% RH for 12 months packed into double polyethylene bags inside an HDPE bottle sealed with a screw cap closure.
Further samples of Form 1 were stored separately at two conditions of 40° C./75% RH for 6 months and 25° C./60% RH for 12 months packed into double polyethylene bags inside an HDPE bottle sealed with a screw cap closure. In this stability study X-Ray Powder Diffraction patterns were collected on a PANalytical X'Pert PRO diffractometer using CuKα radiation (45 kV, 40 mA), θ-θ goniometer, focusing mirror (Cu W/Si), divergence slit (½°), soller slits at both incident and diffracted beam (0.04 RAD), fixed mask (4 mm) and a PIXcel detector. The software used for data collection was X′Pert Data Collector, version 2.2f. The instrument was performance checked using a certified Standard Reference Material 640 d, Silicon Powder (NIST). XRPD patterns were acquired under ambient conditions via a transmission foil sample stage (polyimide—Kapton, TF-475, 7.5 μm thickness film). The specimen was examined with approximately 5 mg of the sample examined as dispensed onto the sample stage. The data collection range was 2.994-35.0056° […] with a step size of 0.0263° and a continuous scan speed of 0.202004° s^−1. No change in the XRPD diffractogram was observed after 6 months at 40° C./75% RH or after 12 months at 25° C./60% RH (FIG. 16).
Further tests on the samples of Form 1 stored at 25° C./60% RH and 40° C./75% RH were carried out as described in the table below.

[4] = Stability study, open vial, 40° C./75% RH, 7 and 28 days; format: physicochemical; details: for XRPD change on storage: open glass vial covered with tissue
Procedure: Further evidence of the suitability of the crystalline forms for pharmaceutical development is provided by the stability data disclosed herein. Form 1 of N-[(2,6-difluoro-3-methoxyphenyl)methyl]-3-(methoxymethyl)-1-({4-[(2-oxopyridin-1-yl)methyl]phenyl}methyl)pyrazole-4-carboxamide was stored at 40° C./75% RH in a open glass vial covered with tissue. […] (FIG. 3).
A sample of Form 1 was placed in an open vial covered with tissue in a dessicator under accelerated stability conditions of 40° C./75% RH. The sample was reanalysed after 7 days and 28 days by XRPD, STA and DSC using the same methods as described above.

postoperative bleeding = details: in vivo; cited from earlier work

Compound: N=C(N)c1ccc(CNC(=O)c2cnn(Cc3ccccc3)c2)cc1 [ASP-440]
- Oral availability [1]: poor oral availability
- Hematoma expansion (rats): reduced hematoma expansion

Compound: COCc1nn(Cc2ccc(Cn3ccccc3=O)cc2)cc1C(=O)NCc1c(F)ccc(OC)c1F [Form 1, N-[(2,6-difluoro-3-methoxyphenyl)methyl]-3-(methoxymethyl)-1-({4-[(2-oxopyridin-1-yl)methyl]phenyl}methyl)pyrazole-4-carboxamide]
- Hygroscopicity by GVS [2]: absence of significant hygroscopicity
- %-Wt (dry basis), Adsorption ([2]; 0.007 %-RH): 0.000001 %-Wt
- %-Wt (dry basis), Adsorption ([2]; 0.008 %-RH): 0.001373 %-Wt
- %-Wt (dry basis), Desorption ([2]; 0.32 %-RH): 0.002745 %-Wt
- %-Wt (dry basis), Desorption ([2]; 5 %-RH): 0.04664 %-Wt
- %-Wt (dry basis), Adsorption ([2]; 10.023 %-RH): 0.07544 %-Wt
- %-Wt (dry basis), Desorption ([2]; 14.995 %-RH): 0.09053 %-Wt
- %-Wt (dry basis), Adsorption ([2]; 20.021 %-RH): 0.1619 %-Wt
- %-Wt (dry basis), Desorption ([2]; 24.99 %-RH): 0.1934 %-Wt
- %-Wt (dry basis), Adsorption ([2]; 30.013 %-RH): 0.2634 %-Wt
- %-Wt (dry basis), Desorption ([2]; 34.982 %-RH): 0.2908 %-Wt
- %-Wt (dry basis), Adsorption ([2]; 40.002 %-RH): 0.3978 %-Wt
- %-Wt (dry basis), Desorption ([2]; 44.976 %-RH): 0.4554 %-Wt
- %-Wt (dry basis), Adsorption ([2]; 50.002 %-RH): 0.5926 %-Wt
- %-Wt (dry basis), Desorption ([2]; 55.026 %-RH): 0.6474 %-Wt
- %-Wt (dry basis), Adsorption ([2]; 59.996 %-RH): 0.8573 %-Wt
- %-Wt (dry basis), Desorption ([2]; 65.02 %-RH): 1.033 %-Wt
- %-Wt (dry basis), Adsorption ([2]; 69.993 %-RH): 1.311 %-Wt
- %-Wt (dry basis), Desorption ([2]; 75.011 %-RH): 1.653 %-Wt
- %-Wt (dry basis), Adsorption ([2]; 79.987 %-RH): 2.17 %-Wt
- %-Wt (dry basis), Desorption ([2]; 85.005 %-RH): 2.905 %-Wt
- %-Wt (dry basis), Adsorption ([2]; 89.98 %-RH): 4.173 %-Wt
- %-Wt (dry basis), Desorption ([2]; 89.98 %-RH): 4.173 %-Wt
- Reversibility of hydration (hysteresis) by GVS ([2]; FIG. 4): hydration is reversible (i.e. no significant hysteresis)
- Increase in water content by GVS ([2]; normal conditions (up to 70% relative humidity)): only a relatively gradual increase in water content
- Appearance ([3]; 25° C./60% RH, 12 months): As initial
- Assay (% w/w on an anhydrous basis) ([3]; 25° C./60% RH, 12 months): 99.94 % w/w
- Assay (% w/w “as-is”) ([3]; 25° C./60% RH, 12 months): 99.78 % w/w
- DSC Onset ([3]; 25° C./60% RH, 12 months): Onset = 156.8 °C
- DSC Peak ([3]; 25° C./60% RH, 12 months): Peak = 159.5 °C
- Purity (% area) ([3]; 25° C./60% RH, 12 months): 100 % area
- Water content (% w/w) ([3]; 25° C./60% RH, 12 months): 0.12 % w/w
- XRPD ([3]; 25° C./60% RH, 12 months): no change; also recorded: As initial
- Appearance ([3]; 40° C./75% RH, 6 months): As initial
- Assay (% w/w on an anhydrous basis) ([3]; 40° C./75% RH, 6 months): 99.31 % w/w
- Assay (% w/w “as-is”) ([3]; 40° C./75% RH, 6 months): 99.1 % w/w
- DSC Onset ([3]; 40° C./75% RH, 6 months): Onset = 157.5 °C
- DSC Peak ([3]; 40° C./75% RH, 6 months): Peak = 159.8 °C
- Impurity Profile by HPLC (% area), Approx RRT 1.16 ([3]; 40° C./75% RH, 6 months): 0.03 % area
- Purity (% area) ([3]; 40° C./75% RH, 6 months): 99.99 % area
- Water content (% w/w) ([3]; 40° C./75% RH, 6 months): 0.17 % w/w
- XRPD ([3]; 40° C./75% RH, 6 months): no change; also recorded: As initial
- Appearance ([3]; Initial, 0 months): A white solid. Free from
- Assay (% w/w on an anhydrous basis) ([3]; Initial, 0 months): 100.18 % w/w
- DSC Onset ([3]; Initial, 0 months): Onset = 156.3 °C
- DSC Peak ([3]; Initial, 0 months): Peak = 158.9 °C
- Impurity Profile by HPLC (% area), Approx RRT 1.12 ([3]; Initial, 0 months): 0.03 % area
- Purity (% area) ([3]; Initial, 0 months): 100 % area
- Water content (% w/w) ([3]; Initial, 0 months): 0.19 % w/w
- XRPD ([3]; Initial, 0 months): Conforms to Form 1
- All measured parameters including Assay, Water Content, XRPD, DSC, Purity and Impurity Profile ([3]; over the course of the study (6 months 40° C./75% RH, 12 months 25° C./60% RH)): remained unchanged
- XRPD change on storage ([4]; 40° C./75% RH, 7 days): no change
- XRPD change on storage ([4]; 40° C./75% RH, 28 days): no change
- DSC onset temperature ([4]; 40° C./75% RH, open vial, after 7 days): 155.2 °C
- DSC onset temperature ([4]; 40° C./75% RH, open vial, after 28 days): 155.0 °C
- DSC onset temperature ([4]; initial timepoint): 154.9 °C

Compound: COCc1nn(Cc2ccc(Cn3ccccc3=O)cc2)cc1C(=O)NCc1c(F)ccc(OC)c1F [Form A, N-[(2,6-Difluoro-3-methoxyphenyl)methyl]-3-(methoxymethyl)-1-({4-[(2-oxopyridin-1-yl)methyl]phenyl}methyl)pyrazole-4-carboxamide]
- %-Wt (dry basis), Desorption ([2]; 0.01 %-RH): 1.174 %-Wt
- %-Wt (dry basis), Adsorption ([2]; 0.012 %-RH): 0.003304 %-Wt
- %-Wt (dry basis), Adsorption ([2]; 0.013 %-RH): 0.004135 %-Wt
- %-Wt (dry basis), Desorption ([2]; 5.002 %-RH): 2.121 %-Wt
- %-Wt (dry basis), Adsorption ([2]; 10.022 %-RH): 0.3314 %-Wt
- %-Wt (dry basis), Desorption ([2]; 15.039 %-RH): 3.537 %-Wt
- %-Wt (dry basis), Adsorption ([2]; 20.014 %-RH): 0.7833 %-Wt
- %-Wt (dry basis), Desorption ([2]; 25.192 %-RH): 5.219 %-Wt
- %-Wt (dry basis), Adsorption ([2]; 30.014 %-RH): 1.246 %-Wt
- %-Wt (dry basis), Desorption ([2]; 34.985 %-RH): 6.774 %-Wt
- %-Wt (dry basis), Adsorption ([2]; 40.009 %-RH): 1.892 %-Wt
- %-Wt (dry basis), Desorption ([2]; 44.978 %-RH): 7.808 %-Wt
- %-Wt (dry basis), Adsorption ([2]; 49.999 %-RH): 2.49 %-Wt
- %-Wt (dry basis), Desorption ([2]; 55.023 %-RH): 8.516 %-Wt
- %-Wt (dry basis), Adsorption ([2]; 59.993 %-RH): 3.239 %-Wt
- %-Wt (dry basis), Desorption ([2]; 65.019 %-RH): 9.185 %-Wt
- %-Wt (dry basis), Adsorption ([2]; 69.992 %-RH): 4.507 %-Wt
- %-Wt (dry basis), Desorption ([2]; 75.011 %-RH): 9.927 %-Wt
- %-Wt (dry basis), Adsorption ([2]; 79.981 %-RH): 7.117 %-Wt
- %-Wt (dry basis), Desorption ([2]; 85.009 %-RH): 10.43 %-Wt
- %-Wt (dry basis), Adsorption ([2]; 89.98 %-RH): 10.71 %-Wt
- %-Wt (dry basis), Desorption ([2]; 89.98 %-RH): 10.71 %-Wt

Compound: aprotinin
- Postoperative bleeding (postoperative bleeding): may be used to decrease postoperative bleeding
